Experimental data from PubChem BioAssay (NCI).
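Results reflect a 48-hour exposure of cells in 96-well plates to compound at five concentrations. GI50 marks 50% less growth. TGI: concentration producing complete growth inhibition.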

Key:
Test in all cases: NCI anticancer screen, dose series, 48 h
[1] = tested on: SK-MEL-5 melanoma
[2] = tested on: OVCAR-3 ovarian
[3] = tested on: MDA-MB-231 breast
[4] = tested on: KM12 colon
[5] = tested on: 786-0 renal
[6] = tested on: DU-145 prostate
[7] = tested on: UO-31 renal
[8] = tested on: CCRF-CEM leukemia
[9] = tested on: HL-60(TB) leukemia
[10] = tested on: SK-MEL-28 melanoma

Row | SMILES | GI50 [1] [µM] | TGI [1] [µM] | GI50 [2] [µM] | TGI [2] [µM] | GI50 [3] [µM] | TGI [3] [µM] | GI50 [4] [µM] | TGI [4] [µM] | GI50 [5] [µM] | TGI [5] [µM] | GI50 [6] [µM] | TGI [6] [µM] | GI50 [7] [µM] | TGI [7] [µM] | GI50 [8] [µM] | TGI [8] [µM] | GI50 [9] [µM] | TGI [9] [µM] | TGI [10] [µM] | GI50 [10] [µM]
1 | COc1ccc(C(c2cc(OC)c(OC)c(OC)c2)n2ccnc2)cc1O (configuration not stated) | 0.367 | 3.18 | 0.264 | 0.857 | 0.664 | > 100 | 0.389 | > 100 | 0.369 | > 100 | 0.407 | > 100 | 0.883 | > 100 | 0.289 | > 100 | 0.229 | 0.628 |  | 
2 | O=C(Nc1ccc2[nH]nc(-c3ccncc3)c2c1)[C@@H]1CCN(CC(=O)N2CCN(c3ccc(-c4ncccn4)cc3)CC2)C1 | 0.607 | > 100 | > 100 | > 100 | 0.0528 | > 100 | 0.431 | > 100 | 47.4 | > 100 | 7.58 | > 100 |  |  | 5.49 | > 100 | 0.132 | > 100 |  | 
3 | Cc1nc(-n2nc(-c3ccccc3)cc2-c2ccccc2)sc1C(=O)/C=C/c1ccc(/C=C/C(=O)c2sc(-n3nc(-c4ccccc4)cc3-c3ccccc3)nc2C)cc1 |  |  |  | 59.3 |  |  |  | 35.8 |  | 33.4 |  |  |  | 42 |  | 96.7 |  | > 100 | 41.8 | 
4 | O=C(NCCCCCCCCCCCCNC(=O)c1cccc2ccccc12)c1cccc2ccccc12 |  | > 100 |  | > 67.6 |  |  |  | > 100 |  | > 71.7 |  |  |  | > 61 |  | > 100 |  | > 80.1 | > 100 | 
5 | COC(=O)C(C(=O)C(=O)Nc1c(C)cccc1C)c1cnc2ccccc2n1 (configuration not stated) |  | > 100 |  |  |  |  |  | > 100 |  | > 100 |  |  |  | > 100 |  | > 100 |  | > 100 | > 100 | 
6 | c1ccc2sc(SCCSc3nc4ccccc4s3)nc2c1 |  |  |  | > 100 |  | > 100 |  | > 100 |  | > 100 |  | > 100 |  | > 100 |  |  |  | > 100 | > 100 | 
7 | COC(=O)CC(NC(=O)OCc1ccccc1)C(C(C)=O)C(=O)OCc1ccccc1 (configuration not stated) |  | > 31.6 |  | > 31.6 |  |  |  | > 31.6 |  | > 31.6 |  |  |  | > 31.6 |  | > 31.6 |  | > 31.6 | > 31.6 | 
8 | NNC(=S)N/N=C(\C(=O)Nc1cccc(O)c1)C1C(=O)NC(=S)NC1=O |  | > 100 |  | > 100 |  | > 100 |  | > 100 |  | > 100 |  |  |  | > 100 |  | > 100 |  | > 100 | > 100 | 
9 | c1cc(NNc2cccc(-c3nn[nH]n3)c2)cc(-c2nn[nH]n2)c1 |  | > 100 |  | > 100 |  | > 100 |  | > 100 |  | > 100 |  | > 100 |  | > 100 |  |  |  |  | > 100 | 
10 | O=C(CC(Cl)=C(Cl)Cl)Nc1ccccc1 | > 100 | > 100 |  |  | > 100 | > 100 | > 100 | > 100 | > 100 | > 100 | > 100 | > 100 | > 100 | > 100 | > 100 | > 100 | > 100 | > 100 | > 100 | > 100
